We go through seven compounds from the NIST ThermoML archive (doi:10.1021/je9006234).

± gives the expanded uncertainty stated by the source.

The conditions of the data set: 298.15 K; 101.33 kPa; Liquid.

As a reminder, the mass density is mass per unit of volume.

Take `CN(C)C=O` [dimethylformamide]: the mass density was 944.21 ± 0.23 kg/m3. As for `c1ccc2ncccc2c1` [quinoline], the mass density stood at 1089.45 ± 0.31 kg/m3.

In the case of `Nc1ccccc1` [aniline], the mass density came to 1017.42 ± 0.19 kg/m3.

Consider `CCCCCCCCCCCCCCCC` [hexadecane], for which the mass density is given as 773.19 ± 0.32 kg/m3. In the case of `c1ccncc1` [pyridine], the mass density stood at 978.25 ± 0.27 kg/m3. Take `c1ccc2[nH]ccc2c1` [1H-indole]: the mass density came to 1216.68 ± 1.3 kg/m3. Turning to `c1cc[nH]c1` [pyrrole], the mass density came out at 965.9 ± 2.9 kg/m3.
